The source of these data is the NIST ThermoML archive (doi:10.1021/je900669t).

Numbers after ± are expanded uncertainties.

Data set [1] is described as follows: refractive index (Na D-line) (dimensionless). As to conditions: 293.15 K; 101.33 kPa; Liquid; Standard Abbe refractometry.
For data set [2] the following is noted: Liquid; for mass density: 298.15 K, 101.33 kPa; for Normal boiling temperature: Ebulliometric method (Recirculating still).

In the case of `CC(=O)CC(C)=O` [2,4-pentanedione], the refractive index (in general, a measure of how strongly the sample bends light) in data set [1] was 1.4489 ± 0.0005. In addition, in data set [2], the mass density (usually mass per unit of volume) was 971.7 ± 1.4 kg/m3 and the Normal boiling temperature was 140.5 ± 0.2 °C.

In the case of `CC(=O)O` [acetic acid], the refractive index in data set [1] came to 1.3715 ± 0.0005. In data set [2], the mass density was 1046.9 ± 1.6 kg/m3 and the Normal boiling temperature was found to be 118.29 ± 0.2 °C.

Turning to `C1CCCCC1` [cyclohexane], the refractive index in data set [1] was 1.4259 ± 0.0005. Moreover, in data set [2], the mass density is 779.6 ± 7.6 kg/m3 and the Normal boiling temperature came to 80.8 ± 0.2 °C.
